# Reference: patent US8999940B2 (Ipsen Pharma S.A.S., priority 2008, dated 2015)
# Assays:
# [1] = target: T1, human recombinant GIP receptor (Homo sapiens, UniProt P48546); assay: In vitro hGIP receptor binding assay
# T1 construct: expressed in transfected cells; host or cells: CHO-K1 clonal cells (membrane preparation)
# T1 sequence (P48546 22-466): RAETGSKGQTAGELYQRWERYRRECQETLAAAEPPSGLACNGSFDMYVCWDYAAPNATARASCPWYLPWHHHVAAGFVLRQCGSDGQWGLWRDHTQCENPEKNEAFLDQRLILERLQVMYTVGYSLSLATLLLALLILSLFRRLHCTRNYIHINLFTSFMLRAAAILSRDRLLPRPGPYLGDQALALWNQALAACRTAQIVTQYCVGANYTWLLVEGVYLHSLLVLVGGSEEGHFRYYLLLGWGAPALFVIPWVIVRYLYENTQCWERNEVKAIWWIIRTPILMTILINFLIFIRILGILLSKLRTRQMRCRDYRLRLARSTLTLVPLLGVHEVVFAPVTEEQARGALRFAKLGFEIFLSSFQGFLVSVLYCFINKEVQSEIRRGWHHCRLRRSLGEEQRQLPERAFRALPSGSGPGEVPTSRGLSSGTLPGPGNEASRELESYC
# Procedure: A. In Vitro hGIP Receptor Binding Assay […] The incubations were terminated by rapid filtration through GF/C filters (pre-soaked in 0.5% polyethylenimine) using a Brandel filtration manifold. Each tube and filter were then washed three times with 5-ml aliquots of ice-cold buffer.
# [2] = Human plasma half-life assay; type: in vitro ADME; conditions: 37° C., LC-MS, read-out: Human Plasma T½ (converted)
# Procedure: (§1) B. Human and Rat Plasma Half-Life Assay
# (§2) 50 μl was removed at various times, like at 0, 1, 2, 3, 4, 8, 24, 32, 48, 56, 72 hours, mixed with 5 μl formic acid and 150 μL acetonitrile in a microcentrifuge tube, vertexed, and centrifuged for 10 minutes at 10 K rpm. The supernatant was transferred to an injection vial and analyzed by LC-MS. The LC-MS system consisted of an API4000 mass spectrometer with an ESI probe. Positive ion mode and full scan detection were used. HPLC separation was carried out on a Luna 3μ. C8 (2), 2×30 mm column with a gradient from 90% A to 90% B in 10 minutes at a flow rate of 0.3 ml/min. Buffer A was 1% formic acid in water and buffer B was 1% formic acid acetonitrile.
# [3] = Rat plasma half-life assay; type: in vitro ADME; conditions: 37° C., LC-MS, read-out: Rat Plasma T½ (converted)
# Procedure: as §1, §2
SMILES,Ki [1],half-life at 0.1 mg/ml [2],half-life at 0.1 mg/ml [3]
"CC[C@H](C)[C@H](NC(=O)[C@H](CCCCN)NC(=O)[C@H](CC(=O)O)NC(=O)[C@H](CCSC)NC(=O)[C@H](C)NC(=O)[C@@H](NC(=O)C1(NC(=O)[C@H](Cc2ccc(O)cc2)NC(=O)[C@H](CC(=O)O)NC(=O)[C@H](CO)NC(=O)[C@@H](NC(=O)[C@H](Cc2ccccc2)NC(=O)[C@@H](NC(=O)CNC(=O)[C@H](CCC(=O)O)NC(=O)C(C)(C)NC(=O)[C@@H](N)Cc2ccc(O)c(O)c2)[C@@H](C)O)[C@@H](C)CC)CCCC1)[C@@H](C)CC)C(=O)N[C@@H](Cc1c[nH]cn1)C(=O)N[C@@H](CCC(N)=O)C(=O)N[C@@H](CCC(N)=O)C(=O)N[C@@H](CC(=O)O)C(=O)N[C@@H](Cc1ccccc1)C(=O)N[C@H](C(=O)N[C@@H](CC(N)=O)C(=O)N[C@@H](Cc1c[nH]c2ccccc12)C(=O)N[C@@H](CC(C)C)C(=O)N[C@@H](CC(C)C)C(=O)N[C@@H](C)C(=O)N[C@@H](CCC(N)=O)C(=O)N[C@@H](CCCCN)C(=O)NCC(=O)N[C@@H](CCCCN)C(=O)N[C@@H](CCCCN)C(=O)N[C@@H](CC(N)=O)C(=O)N[C@@H](CC(=O)O)C(=O)N[C@@H](Cc1c[nH]c2ccccc12)C(=O)N[C@@H](CCCCN)C(=O)N[C@@H](Cc1c[nH]cn1)C(=O)N[C@@H](CC(N)=O)C(=O)N[C@H](C(=O)NC1(C(=O)N[C@@H](CCC(N)=O)C(=O)O)CCCC1)[C@@H](C)CC)C(C)C [Example 27, (30H-Tyr^1, Aib^2, A5c^11, 41)hGIP(1-42)-OH]",6.69 nM,7 h,5.1 h
"CC[C@H](C)[C@H](NC(=O)[C@H](CCCCN)NC(=O)[C@H](CC(=O)O)NC(=O)[C@H](CCSC)NC(=O)[C@H](C)NC(=O)[C@@H](NC(=O)C1(NC(=O)[C@H](Cc2ccc(O)cc2)NC(=O)[C@H](CC(=O)O)NC(=O)[C@H](CO)NC(=O)[C@@H](NC(=O)[C@H](Cc2ccccc2)NC(=O)[C@@H](NC(=O)CNC(=O)[C@H](CCC(=O)O)NC(=O)C(C)(C)NC(=O)[C@@H](N)Cc2ccsc2)[C@@H](C)O)[C@@H](C)CC)CCCC1)[C@@H](C)CC)C(=O)N[C@@H](Cc1c[nH]cn1)C(=O)N[C@@H](CCC(N)=O)C(=O)N[C@@H](CCC(N)=O)C(=O)N[C@@H](CC(=O)O)C(=O)N[C@@H](Cc1ccccc1)C(=O)N[C@H](C(=O)N[C@@H](CC(N)=O)C(=O)N[C@@H](Cc1c[nH]c2ccccc12)C(=O)N[C@@H](CC(C)C)C(=O)N[C@@H](CC(C)C)C(=O)N[C@@H](C)C(=O)N[C@@H](CCC(N)=O)C(=O)N[C@@H](CCCCN)C(=O)NCC(=O)N[C@@H](CCCCN)C(=O)N[C@@H](CCCCN)C(=O)N[C@@H](CC(N)=O)C(=O)N[C@@H](CC(=O)O)C(=O)N[C@@H](Cc1c[nH]c2ccccc12)C(=O)N[C@@H](CCCCN)C(=O)N[C@@H](Cc1c[nH]cn1)C(=O)N[C@@H](CC(N)=O)C(=O)N[C@H](C(=O)NC1(C(=O)N[C@@H](CCC(N)=O)C(=O)O)CCCC1)[C@@H](C)CC)C(C)C [Example 37, (3Thi^1, Aib^2, A5c^11, 41)hGIP(1-42)-OH]",7.05 nM,29.3 h,> 72 h
"CCCC[C@H](NC(=O)[C@H](C)NC(=O)[C@@H](NC(=O)C1(NC(=O)[C@H](Cc2ccc(O)cc2)NC(=O)[C@H](CC(=O)O)NC(=O)[C@H](CO)NC(=O)[C@@H](NC(=O)[C@H](Cc2ccccc2)NC(=O)[C@@H](NC(=O)CNC(=O)[C@H](CCC(=O)O)NC(=O)C(C)(C)NC(=O)[C@@H](N)CCc2ccc(O)cc2)[C@@H](C)O)[C@@H](C)CC)CCCC1)[C@@H](C)CC)C(=O)N[C@@H](CC(=O)O)C(=O)N[C@@H](CCCCN)C(=O)N[C@H](C(=O)N[C@@H](Cc1c[nH]cn1)C(=O)N[C@@H](CCC(N)=O)C(=O)N[C@@H](CCC(N)=O)C(=O)N[C@@H](CC(=O)O)C(=O)N[C@@H](Cc1ccccc1)C(=O)N[C@H](C(=O)N[C@@H](CC(N)=O)C(=O)N[C@@H](Cc1c[nH]c2ccccc12)C(=O)N[C@@H](CC(C)C)C(=O)N[C@@H](CC(C)C)C(=O)N[C@@H](C)C(=O)N[C@@H](CCC(N)=O)C(=O)N[C@@H](CCCCN)C(=O)NCC(=O)N[C@@H](CCCCN)C(=O)N[C@@H](CCCCN)C(=O)N[C@@H](CC(N)=O)C(=O)N[C@@H](CC(=O)O)C(=O)N[C@@H](Cc1c[nH]c2ccccc12)C(=O)N[C@@H](CCCCN)C(=O)N[C@@H](Cc1c[nH]cn1)C(=O)N[C@@H](CC(N)=O)C(=O)N[C@H](C(=O)N[C@H](C(=O)N[C@@H](CCC(N)=O)C(=O)O)[C@@H](C)O)[C@@H](C)CC)C(C)C)[C@@H](C)CC [Example 19, (hTyr^1, Aib^2, A5c^11, Nle^14)hGIP(1-42)-OH]",77.3 nM,> 72 h,15.2 h
"CCCC[C@H](NC(=O)[C@H](C)NC(=O)[C@@H](NC(=O)C1(NC(=O)[C@H](Cc2ccc(O)cc2)NC(=O)[C@H](CC(=O)O)NC(=O)[C@H](CO)NC(=O)[C@@H](NC(=O)[C@H](Cc2ccccc2)NC(=O)[C@@H](NC(=O)CNC(=O)[C@H](CCC(=O)O)NC(=O)C(C)(C)NC(=O)[C@@H](N)Cc2ccc(F)c(F)c2)[C@@H](C)O)[C@@H](C)CC)CCCC1)[C@@H](C)CC)C(=O)N[C@@H](CC(=O)O)C(=O)N[C@@H](CCCCN)C(=O)N[C@H](C(=O)N[C@@H](Cc1c[nH]cn1)C(=O)N[C@@H](CCC(N)=O)C(=O)N[C@@H](CCC(N)=O)C(=O)N[C@@H](CC(=O)O)C(=O)N[C@@H](Cc1ccccc1)C(=O)N[C@H](C(=O)N[C@@H](CC(N)=O)C(=O)N[C@@H](Cc1c[nH]c2ccccc12)C(=O)N[C@@H](CC(C)C)C(=O)N[C@@H](CC(C)C)C(=O)N[C@@H](C)C(=O)N[C@@H](CCC(N)=O)C(=O)N[C@@H](CCCCN)C(=O)NCC(=O)N[C@@H](CCCCN)C(=O)N[C@@H](CCCCN)C(=O)N[C@@H](CC(N)=O)C(=O)N[C@@H](CC(=O)O)C(=O)N[C@@H](Cc1c[nH]c2ccccc12)C(=O)N[C@@H](CCCCN)C(=O)N[C@@H](Cc1c[nH]cn1)C(=O)N[C@@H](CC(N)=O)C(=O)N[C@H](C(=O)N[C@H](C(=O)N[C@@H](CCC(N)=O)C(=O)O)[C@@H](C)O)[C@@H](C)CC)C(C)C)[C@@H](C)CC [Example 24, (3,4F-Phe^1, Aib^2, A5c^11, Nle^14)hGIP(1-42)-OH]",15.7 nM,> 74 h,> 74 h
"CCCC[C@H](NC(=O)[C@H](C)NC(=O)[C@@H](NC(=O)C1(NC(=O)[C@H](Cc2ccc(O)cc2)NC(=O)[C@H](CC(=O)O)NC(=O)[C@H](CO)NC(=O)[C@@H](NC(=O)[C@H](Cc2ccccc2)NC(=O)[C@@H](NC(=O)CNC(=O)[C@H](CCC(=O)O)NC(=O)C(C)(C)NC(=O)[C@@H](N)Cc2cc(F)cc(F)c2)[C@@H](C)O)[C@@H](C)CC)CCCC1)[C@@H](C)CC)C(=O)N[C@@H](CC(=O)O)C(=O)N[C@@H](CCCCN)C(=O)N[C@H](C(=O)N[C@@H](Cc1c[nH]cn1)C(=O)N[C@@H](CCC(N)=O)C(=O)N[C@@H](CCC(N)=O)C(=O)N[C@@H](CC(=O)O)C(=O)N[C@@H](Cc1ccccc1)C(=O)N[C@H](C(=O)N[C@@H](CC(N)=O)C(=O)N[C@@H](Cc1c[nH]c2ccccc12)C(=O)N[C@@H](CC(C)C)C(=O)N[C@@H](CC(C)C)C(=O)N[C@@H](C)C(=O)N[C@@H](CCC(N)=O)C(=O)N[C@@H](CCCCN)C(=O)NCC(=O)N[C@@H](CCCCN)C(=O)N[C@@H](CCCCN)C(=O)N[C@@H](CC(N)=O)C(=O)N[C@@H](CC(=O)O)C(=O)N[C@@H](Cc1c[nH]c2ccccc12)C(=O)N[C@@H](CCCCN)C(=O)N[C@@H](Cc1c[nH]cn1)C(=O)N[C@@H](CC(N)=O)C(=O)N[C@H](C(=O)N[C@H](C(=O)N[C@@H](CCC(N)=O)C(=O)O)[C@@H](C)O)[C@@H](C)CC)C(C)C)[C@@H](C)CC [Example 25, (3,5F-Phe^1, Aib^2, A5c^11, Nle^14)hGIP(1-42)-OH]",26 nM,> 74 h,> 74 h
